Data as given in US7482346B2, “Derivatives of alkylpiperazine and alkylhomopiperazine-carboxylates, preparation method thereof and use of same as fatty acid amido hydrolase enzyme inhibitors” (Sanofi-Aventis, priority 2004, dated 2009).
Structures can show the parent of a compound that is named as a salt.

System: not given
Assay: not given
Conditions: not given

SMILES	melting point
CNC(=O)COC(=O)N1CCN(CCOc2ccc(Cl)cc2)CC1 [Compound 130, 2-(methylamino)-2-oxoethyl 4-{2-[(4-chlorophenyl)oxy]ethyl}piperazine-1-carboxylate]	159 to 161 °C
NC(=O)COC(=O)N1CCCN(CC#Cc2cccc(C(F)(F)F)c2)CC1 [Compound 99, 2-amino-2-oxoethyl 4-{3-[3-(trifluoromethyl)phenyl]prop-2-yn-1-yl}-1,4-diazepane-1-carboxylate]	102 to 104 °C
CNC(=O)COC(=O)N1CCN(CCCc2cccc(-c3cccc(Cl)c3)c2)CC1 [Compound 52, 2-(methylamino)-2-oxoethyl 4-[3-(3′-chlorobiphenyl-3-yl)propyl]piperazine-1-carboxylate]	82 to 85 °C
CNC(=O)COC(=O)N1CCN(C(C)(C)CCc2cccc(-c3ccccc3)c2)CC1 (as salt: HCl) [Compound 50, 2-(methylamino)-2-oxoethyl 4-(3-biphenyl-3-yl-1,1-dimethylpropyl)piperazine-1-carboxylate hydrochloride]	212 to 216 °C (dec.)
CNC(=O)COC(=O)N1CCN(C/C=C/c2ccccc2)CC1 [Compound 85, 2-(methylamino)-2-oxoethyl trans-4-(3-phenylprop-2-en-1-yl)piperazine-1-carboxylate]	109 to 111 °C
CNC(=O)COC(=O)N1CCN(CCc2cc(-c3ccc(Cl)cc3)no2)CC1 [Compound 29, 2-(methylamino)-2-oxoethyl 4-{2-[3-(4-chlorophenyl)isoxazol-5-yl]ethyl}piperazine-1-carboxylate]	130 to 132 °C
CNC(=O)COC(=O)N1CCN(CCc2ccc3ccccc3c2)CC1 [Compound 25, 2-(methylamino)-2-oxoethyl 4-(2-naphthalen-2-ylethyl)piperazine-1-carboxylate]	133 to 135 °C

Molecular target: T1, FAAH (fatty acid amide hydrolase) (Mus musculus, UniProt O08914)
T1 construct: Membrane homogenates are prepared at the time of use by homogenizing the tissues in a Polytron; from tissue; host or cells: mouse brain (minus the cerebellum), membrane homogenate
T1 sequence (O08914 1-579): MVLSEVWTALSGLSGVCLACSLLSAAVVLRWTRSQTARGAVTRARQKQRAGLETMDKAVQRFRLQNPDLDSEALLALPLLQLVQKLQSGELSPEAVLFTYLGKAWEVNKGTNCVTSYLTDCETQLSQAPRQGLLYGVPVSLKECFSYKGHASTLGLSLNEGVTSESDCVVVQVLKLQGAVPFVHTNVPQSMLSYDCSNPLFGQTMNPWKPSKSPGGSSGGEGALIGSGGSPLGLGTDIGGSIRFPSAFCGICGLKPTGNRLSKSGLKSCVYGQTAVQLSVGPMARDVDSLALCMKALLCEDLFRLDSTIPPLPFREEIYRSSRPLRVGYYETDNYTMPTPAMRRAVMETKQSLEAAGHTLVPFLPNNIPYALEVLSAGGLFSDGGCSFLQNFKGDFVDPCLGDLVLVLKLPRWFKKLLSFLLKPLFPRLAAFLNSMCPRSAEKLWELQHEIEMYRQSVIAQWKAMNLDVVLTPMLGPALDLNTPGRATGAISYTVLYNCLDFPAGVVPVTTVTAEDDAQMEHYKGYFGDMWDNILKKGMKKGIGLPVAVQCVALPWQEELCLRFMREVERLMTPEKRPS
Assay: radio-enzymatic assay of FAAH inhibition (hydrolysis of anandamide [1-3H ethanolamine])
Type: biochemical
Conditions: mouse brain membrane homogenates; anandamide [1-3H ethanolamine] 10 μM; 15 minutes at 25° C.; read-out: IC50 (concentration inhibiting by 50% the control enzyme activity of FAAH)
Method: The compounds of the invention were subjected to pharmacological tests permitting determination of their inhibitory effect on the enzyme FAAH (fatty acid amide hydrolase).
Accordingly, mouse brains (minus the cerebellum) are removed and stored at −80° C. Membrane homogenates are prepared at the time of use by homogenizing the tissues in a Polytron in a 10 mM Tris-HCl buffer (pH 8) containing 150 mM NaCl and 1 mM EDTA. The enzyme reaction is subsequently conducted in 70 μl of buffer containing bovine serum albumin without fatty acids (1 mg/ml). In succession, the test compounds, at various concentrations, anandamide [1-^3H ethanolamine] (specific activity: 15-20 Ci/mmol) diluted to 10 μM with cold anandamide, and the membrane preparation (400 μg of frozen tissue per assay) are added. After 15 minutes at 25° C. the enzyme reaction is terminated by adding 140 μl of chloroform/methanol (2:1). The mixture is stirred for 10 minutes and then centrifuged for 15 minutes at 3500 g. An aliquot (30 μl) of the aqueous phase containing the 1-^3H ethanolamine is counted by liquid scintillation.

SMILES	IC50 [nM]
CNC(=O)COC(=O)N1CCN(CCc2cccc3ccccc23)CC1 [Compound 21, 2-(methylamino)-2-oxoethyl 4-[2-(1-naphthyl)ethyl]piperazine-1-carboxylate]	72
CNC(=O)COC(=O)N1CCN(CCCc2cccc(-c3ccccc3)c2)CC1 [Compound 48, 2-(methylamino)-2-oxoethyl 4-(3-biphenyl-3-ylpropyl)piperazine-1-carboxylate]	50
CNC(=O)COC(=O)N1CCN(CCCc2ccc(-c3ccccc3)cc2)CC1 [Compound 49, 2-(methylamino)-2-oxoethyl 4-(3-biphenyl-4-ylpropyl)piperazine-1-carboxylate]	32

System: male OFI mice
Assay: analgesia test: abdominal stretches induced by PBQ (phenylbenzoquinone)
Type: in vivo, mouse
Conditions: dose of 10 mg/kg at 120 minutes, PBQ 2 mg/kg i.p.
Method: The in vivo activity of the compounds of the invention was evaluated in an analgesia test.
Accordingly, intraperitoneal (i.p.) administration of PBQ (phenylbenzoquinone, 2 mg/kg in a 0.9% sodium chloride solution containing 5% of ethanol) to male OFI mice weighing 25 to 30 g causes abdominal stretches, on average 30 twists or contractions during the period from 5 to 15 minutes after injection. The test compounds are administered orally (p.o.) or intraperitoneally (i.p.) in suspension in Tween 80 at 0.5%, 60 minutes or 120 minutes before the administration of PBQ. […] For example, compounds 49 and 69 of the table reduce by 43% and 47% respectively, the number of stretches induced by PBQ, at a dose of 10 mg/kg at 120 minutes.

SMILES	reduction of the number of stretches induced by PBQ [%]
CNC(=O)COC(=O)N1CCN(CCCc2cc(-c3ccc(Cl)cc3)no2)CC1 [Compound 69, 2-(methylamino)-2-oxoethyl 4-{3-[3-(4-chlorophenyl)isoxazol-5-yl]propyl}piperazine-1-carboxylate]	47
CNC(=O)COC(=O)N1CCN(CCCc2ccc(-c3ccccc3)cc2)CC1 [Compound 49, 2-(methylamino)-2-oxoethyl 4-(3-biphenyl-4-ylpropyl)piperazine-1-carboxylate]	43
